Test results from PubChem BioAssay (NCI).
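Cells were grown in 96-well plates and exposed to each compound for 48 hours at five concentrations; endpoints were interpolated linearly between bracketing concentrations, or set to the highest concentration if not reached. GI50 marks 50% less growth. Definition used: TGI = concentration required for complete inhibition of growth.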

How the values were obtained:
Assay in all cases: NCI tumour cell line growth inhibition, 48 h
DLD-1 colon = test system: DLD-1 colon
KM20L2 colon = test system: KM20L2 colon
SR leukemia = test system: SR leukemia
M19-MEL melanoma = test system: M19-MEL melanoma
DMS 114 small cell lung = test system: DMS 114 small cell lung
MDA-MB-435 = test system: MDA-MB-435
PC-3 prostate = test system: PC-3 prostate
MDA-MB-231 breast = test system: MDA-MB-231 breast
HS 578T breast = test system: HS 578T breast
T-47D breast = test system: T-47D breast
P388 leukemia = test system: P388 leukemia
HOP-18 NSCLC = test system: HOP-18 NSCLC
SN12K1 renal = test system: SN12K1 renal

Row | Structure (SMILES) | TGI (DLD-1 colon) | TGI (KM20L2 colon) | TGI (SR leukemia) | TGI (M19-MEL melanoma) | TGI (DMS 114 small cell lung) | TGI (MDA-MB-435) | TGI (PC-3 prostate) | TGI (MDA-MB-231 breast) | TGI (HS 578T breast) | TGI (T-47D breast) | TGI (P388 leukemia) | TGI (HOP-18 NSCLC) | TGI (SN12K1 renal) | GI50 (PC-3 prostate) | GI50 (MDA-MB-231 breast) | GI50 (T-47D breast) | GI50 (MDA-MB-435) | GI50 (SR leukemia) | GI50 (HS 578T breast)
1 | CC1CC(c2ccc([N+](=O)[O-])cc2)=Nc2ccccc2S1=O (configuration not stated) | 33.6 µM | 29.9 µM | 76.6 µM | 30.8 µM | 33.2 µM | – | – | – | – | – | – | – | – | – | – | – | – | – | –
2 | Cc1ccc(C(=O)N/N=C(\N=Nc2ccccc2)c2ccc(N(CCC#N)CCC#N)cc2C)cc1 | – | – | > 100 µM | – | – | > 100 µM | > 100 µM | > 100 µM | > 100 µM | > 100 µM | – | – | – | – | – | – | – | – | –
3 | C/C=C1/C(=O)O[C@]23C=C[C@@H]4C(C(=O)OC)=CO[C@H](O[C@@H]12)[C@@H]43 | 2.94 µM | 15.4 µM | – | 4.38 µM | 2.82 µM | – | – | – | – | – | 1.83 µM | 10.4 µM | 3.22 µM | – | – | – | – | – | –
4 | COc1cc2c(cc1O)N=C[C@@H]1CCC(O)N1C2=O (mixture of isomers) | 13.5 µM | 24.9 µM | – | 4.81 µM | 1.41 µM | – | – | – | – | – | 9.2 µM | 3.39 µM | 25 µM | – | – | – | – | – | –
5 | CC(CNc1nc(Nc2ccc(Cl)c(Cl)c2)nc(C(Cl)(Cl)Cl)n1)N(C)C (configuration not stated) | – | – | – | – | – | – | 3.84 µM | 1.42 µM | – | 4.44 µM | – | – | – | 1.76 µM | 0.307 µM | 1.91 µM | – | – | –
6 | O=C1NC(=O)C2(CCc3ccc(N(CCCl)CCCl)cc32)N1 (configuration not stated) | > 81.8 µM | 42.8 µM | – | 39.5 µM | 26 µM | – | – | – | – | – | 15.5 µM | 64.4 µM | 37.1 µM | – | – | – | – | – | –
7 | CCc1ncc(C(C)(O)c2ccccc2)n1Cc1ccccc1 (configuration not stated) | – | – | 44.1 µM | – | – | 48.1 µM | > 100 µM | 96.3 µM | > 100 µM | > 100 µM | – | – | – | – | – | – | – | – | –
8 | COc1ccc2oc3c(ccc[n+]3C)c(=O)c2c1 | – | – | > 100 µM | – | – | > 100 µM | > 100 µM | > 100 µM | > 100 µM | > 100 µM | – | – | – | – | – | – | – | – | –
9 | CC(=O)Nc1nc(C)c(-c2cc3c(c(S(C)(=O)=O)c2)C(=O)N([C@@H](C)C2CC2)C3)s1 | – | – | > 100 µM | – | – | > 100 µM | > 100 µM | 69.6 µM | 64.2 µM | 45 µM | – | – | – | 31.2 µM | 18.6 µM | 10.7 µM | 52.4 µM | 26.8 µM | 18.4 µM
